Measurements from US20050261130A1, “Novel surfactants and formulations” (Monsanto Technology LLC, priority 2000, published 2005).

How the values were obtained:
Assay type in all cases: physicochemical
[1] = Birefringence test for anisotropic aggregates on wax-coated slide; set-up: key: Y is yes; N is no; details: surfactant in IPA glyphosate formulation
Method: To determine whether a herbicidal formulation comprising glyphosate or a salt or ester thereof and a surfactant forms anisotropic aggregates on the foliage of a plant comprising the surfactant, the following birefringence testing procedure may be utilized.
First, a wax-coated slide is prepared. A preferred wax for preparing the slide is a blend of carnauba wax and beeswax in a weight/weight ratio of approximately 10:1, respectively. A clear wax mixture is prepared consisting of about 5% carnauba wax and about 0.5% beeswax in isopropanol, and is maintained at a temperature of approximately 82° C. The end of a glass 2.4 cm×7.2 cm microscope slide is immersed perpendicularly in the wax mixture to a depth of approximately one-third of the length of the slide. After about 10 to 15 seconds, the slide is very slowly and steadily withdrawn from the wax mixture and allowed to cool, leaving a wax layer deposited on both faces of the slide.
Visual examination of the slide can give a preliminary indication of the thickness and uniformity of the wax coating. If imperfections are evident the slide is rejected. […] Further evaluation of the acceptability of the wax-coated slide for the test is done by examining the slide under a microscope. The slide is selected for use in the test if, on microscopic examination using a 4.9× objective, the wax coating is uniformly thick and there is uniform density of wax particles across the slide.
The next stage in the procedure is to conduct the test.
The following instrumentation, or equivalent, items are required or useful for the test procedure: • Nikon SMZ-10A stereoscopic microscope equipped for polarized light observation, photomicrography, and video observation and recording. • 3CCD MTI camera. • Diagnostic Instruments 150 IL-PS power supply. • Sony Trinitron color video monitor, model PVM-1353MD. • Mitsubishi time-lapse video cassette recorder, model HS-S5600. • Hewlett Packard Pavillion 7270 computer, with Windows 95 and Image-Pro • Plus version 2.0 electronic imaging program installed. • Hewlett Packard Deskjet 870Cse printer.
For testing, a wax-coated slide, prepared and selected as described above, is positioned on the microscope stage, with the system set to provide transmitted light, both straight and polarized. A 1 microliter drop of the sample to be tested is applied to the wax surface using a thoroughly cleaned 1 microliter Hamilton syringe. This and subsequent operations are followed through the microscope at 4.9× objective. Duplicate or triplicate tests are done for each composition. Numerous tests can be conducted simultaneously on a single slide. Progression of change in the microscopic appearance of the sample is observed through the microscope and recorded at designated time intervals. Useful intervals are 1 minute, 10 minutes, 2 hours and greater than 24 hours after application of the drop to the wax surface. Observations can also be made at intermediate times to capture possible significant transitions occurring at such times.
The temperature of the wax layer tends to increase with prolonged exposure to the microscope light. […] However, in some cases temperature does affect the outcome of the test and in such cases it is preferred to illuminate the sample only for the short periods necessary to make observations, so that the temperature of the wax layer remains close to ambient temperature.
At dark field (polarized light) the wax layer is observed for birefringence, and at light field the character of the drop surface is observed, at each time interval. The following records are preferably made: • birefringence (y/n); • time of initial appearance of birefringence; • character of the birefringence; • appearance of drop surface as composition “dries”; • degree of spread of the drop; • effects of temperature (warming of the slide) if any; • other noticeable changes.

[2] = Specific gravity (Mettler DA-300 Density/Specific Gravity Meter); details: 20/15.6° C.; 30% a.e. by weight glyphosate monobasic salt solutions
Method: Specific gravities are measured using a Mettler DA-300 Density/Specific Gravity Meter.

[3] = Compatibility of surfactant with potassium glyphosate concentrate (no phase separation, 50° C., 1 week); details: 50° C. oven 1 week; for Compatible w/37% a.e. K + glyphosate at 12 wt % loading: 37 wt. % a.e. potassium glyphosate/12 wt. % surfactant; for Compatible w/45% a.e. K + glyphosate at 15% wt loading: 45 wt. % a.e. potassium glyphosate/15 wt. % surfactant
Method: For the 31 wt. % a.e. potassium glyphosate/10 wt. % surfactant compositions: 1.550 g of 40 wt. % a.e. aqueous glyphosate potassium salt solution was weighed into a vial. To the same vial, 0.200 g of surfactant was added. Enough deionized water was then added to the contents to bring the total weight to 2.000g. The mixture was stirred for 2 hours at room temperature and checked to see if a solution had been formed. If a solution was present, the test vial was allowed to stand at room temperature overnight. If a solution was still present, the test vial was placed in a 50° C. oven for 1 week. If no phase separation had occurred in one week, the surfactant being tested was considered “compatible.” All of the surfactants identified in Table 4 were compatible at the 31% a.e. potassium/10 wt. % surfactant loading.
For the 37 wt. % a.e. potassium glyphosate/12 wt. % surfactant compositions: 41.1 g of 45 wt. % a.e. aqueous glyphosate potassium salt was weighed to a container. To the same container was added 6.0 g of surfactant and 2.9 g deionized water for a total weight of 50.0 g. The remainder of the protocol is the same as that described for the 31 wt. % samples. The surfactants identified in Table 4 that were compatible at the 37% a.e. potassium/12 wt. % surfactant loading are indicated in Table 5 below.
For the 40 wt. % a.e. potassium glyphosate/10 wt. % surfactant compositions: 1.79 g of 45 wt. % a.e. aqueous glyphosate potassium salt was weighed into a vial. To the same vial was added 0.2 g of surfactant. The remainder of the protocol is the same as that described for the 31 wt. % samples. The surfactants identified in Table 4 that were compatible at the 40% a.e. potassium/10 wt. % surfactant loading are indicated in Table 5 below.
For the 45 wt. % a.e. potassium glyphosate/15 wt. % surfactant compositions: 1.100 g of solid mono potassium glyphosate was weighed into a vial. To the same vial was added 0.300 g surfactant. Enough deionized water was added to the vial to bring the final weight to 2.000 g. The remainder of the protocol is the same as that described for the 31 wt. % samples. The surfactants identified in Table 4 that were compatible at the 45% a.e. potassium/[…] are indicated in Table 5 below.

[4] = Compatibility of surfactant with diammonium glyphosate concentrate (no phase separation, 50° C., 1 week); details: 50° C. oven 1 week; for Compatible w/31% a.e. diammonium glyphosate at 10 wt % loading: 31 wt. % a.e. diammonium glyphosate/10 wt. % surfactant; for Compatible w/37% a.e. diammonium glyphosate at 12 wt % loading: 37 wt. % a.e. diammonium glyphosate/12 wt. % surfactant
Method: For the 31 wt. % a.e. NH4^+glyphosate/10 wt. % surfactant compositions: • 1.48 g of 41.9 wt % a.e. aqueous glyphosate diammonium (1.7 eq) salt was weighed into a vial. To the same vial was added 0.2 g of surfactant and 0.32 g deionized water. The remainder of the protocol is the same as that described for the 31 wt % potassium glyphosate samples. The surfactants identified in Table 4 that were compatible at the 31% a.e. ammonium/10 wt. % surfactant loading are indicated in Table 5 below.
For the 37 wt. % a.e. NH4^+glyphosate/12 wt. % surfactant compositions: • 1.76 g of 41.9 wt % a.e. aqueous glyphosate diammonium (1.7 eq) salt was weighed into a vial. To the same vial was added […]. The remainder of the protocol is the same as that described for the 31 wt % potassium glyphosate samples. The surfactants identified in Table 4 that were compatible at the 37% a.e. ammonium/12 wt. % surfactant loading are indicated in Table 5 below.

AA (anisotropic aggregate) [1]	Compatible w/37% a.e. K + glyphosate at 12 wt % loading [3]	Compatible w/31% a.e. diammonium glyphosate at 10 wt % loading [4]	Molecule	further results
Y	–	–	CCCCCCCCCCCCCCCCN(C)CCN(C)CCCCCCCCCCCCCCCC	–
–	–	–	CCN.O=C(O)CNCP(=O)(O)O	Specific Gravity [2]: 1.1599
–	–	–	CCCN.O=C(O)CNCP(=O)(O)O	Specific Gravity [2]: 1.1429
N	–	–	CCCCC(CC)COP(=O)(O)O (centres unmarked) [2-ethylhexyl phosphate]	–
–	Yes	Yes	CCCCCCCCNC(CO)(CO)CO [EEE]	Compatible w/45% a.e. K + glyphosate at 15% wt loading [3]: No; Compatible w/37% a.e. diammonium glyphosate at 12 wt % loading [4]: Yes
–	–	No	CCCCCCCCCCCCNC(CO)(CO)CO [FFF]	Compatible w/37% a.e. diammonium glyphosate at 12 wt % loading [4]: No
Y	–	–	CCCCCCCCCCN(C)CCN(C)CCCCCCCCCC [Gemini 10-2-10]	–
Y	–	–	CCCCCCCCCCN(C)CCCN(C)CCCCCCCCCC [Gemini 10-3-10]	–
Y	–	–	CCCCCCCCCCN(C)CCCCN(C)CCCCCCCCCC [Gemini 10-4-10]	–
–	–	No	CCCCCCCCCCCCOCCOCCOCCOCCN(C)C [HHH]	–
–	Probably	–	CCCCCCCCCCCCCCCCOCCOCCOCCOCCOCCOCCOCCOCCOCCOCCNCCCN [KKK]	Compatible w/45% a.e. K + glyphosate at 15% wt loading [3]: Yes, but minor
–	Yes	Yes	CCCCCCCCCCCCCCCCOCCOCCOCCOCCOCCOCCOCCOCCOCCOCCN(C)CCN(C)C [MMM]	–
–	Probably	No	CCCCCCCCCCCCCCCCOCCOCCOCCOCCOCCOCCOCCOCCOCCOCCN(C)CC(O)C(O)C(O)C(O)CO (centres unmarked) [OOO]	Compatible w/37% a.e. diammonium glyphosate at 12 wt % loading [4]: Yes
–	No	No	CCCCCCCCCCCCCCCCOCCOCCOCCOCCOCCOCCOCCOCCOCCOCCOCCOCCOCCOCCOCCOCCOCCOCCOCCOCCN(C)CC(O)C(O)C(O)C(O)CO (centres unmarked) [PPP]	Compatible w/37% a.e. diammonium glyphosate at 12 wt % loading [4]: No
–	No	No	CCCCCCCCCCCCCCCCOCCOCCOCCOCCOCCOCCOCCOCCOCCOCCOCCOCCOCCOCCOCCOCCOCCOCCOCCOCCN(C)CC(O)CO (centres unmarked) [QQQ]	Compatible w/37% a.e. diammonium glyphosate at 12 wt % loading [4]: No
–	Yes	Yes	CCCCCCCCCCCCN(C)CC(O)C(O)C(O)C(O)CO (centres unmarked) [RR]	Compatible w/45% a.e. K + glyphosate at 15% wt loading [3]: Yes; Compatible w/37% a.e. diammonium glyphosate at 12 wt % loading [4]: Yes
–	–	No	CCCCCCCCCCCCCCCCCCN(C)CCOCCOCCOCCOCCOCCOCCOC [Surfactant C, α-methyl-ω-(N-methyloctadecylamino)poly(oxy-1,2-ethanediyl)]	–

AA (anisotropic aggregate) [1]	Compatible w/37% a.e. K + glyphosate at 12 wt % loading [3]	Compatible w/31% a.e. diammonium glyphosate at 10 wt % loading [4]	Molecule	further results
–	Yes	–	CCCCCCCCN(CCCN(CCCCCCCC)CC(O)C(O)C(O)C(O)CO)CC(O)C(O)C(O)C(O)CO (centres unmarked) [Surfactant CCC, 1,8 hexylaminoglucitol octane]	Compatible w/45% a.e. K + glyphosate at 15% wt loading [3]: Yes
–	Yes	–	CN(CCCCCCCCCCCCN(C)CC(O)C(O)C(O)C(O)CO)CC(O)C(O)C(O)C(O)CO (centres unmarked) [Surfactant ZZ, 1,12 methylaminoglucitoldodecane]	Compatible w/45% a.e. K + glyphosate at 15% wt loading [3]: Yes
–	No	Yes	CCCCCCCCCCCC[N+](C)(C)CC(O)C(O)C(O)C(O)CO (centres unmarked) [XX]	Compatible w/37% a.e. diammonium glyphosate at 12 wt % loading [4]: No
–	No	Yes	CCCCCCCCCCCCCCCCCC[N+](C)(C)CC(O)C(O)C(O)C(O)CO (centres unmarked) [YY]	Compatible w/37% a.e. diammonium glyphosate at 12 wt % loading [4]: No
N	–	–	CCCCCCCC(=O)O [caprylic acid]	–
N	–	–	CCCCCCCCCCN(C)C [drawing 146 w=10]	–
–	–	–	CC(C)N.O=C(O)CNCP(=O)(O)O [isopropylammonium (IPA)]	Specific Gravity [2]: 1.1554
–	–	–	CN [methylammonium]	Specific Gravity [2]: 1.1667
–	–	–	NCCO.O=C(O)CNCP(=O)(O)O [monoethanolammonium (MEA)]	Specific Gravity [2]: 1.2357
Y	–	–	CCCCCCCC/C=C\CCCCCCCC(=O)O [oleic acid]	–
Y	–	–	CCCCCCCCCCCCCCCC(=O)O [palmitic acid]	–
Y	–	–	CCCCCCCCCCCCOS(=O)(=O)[O-].[Na+] [sodium lauryl sulfate]	–
Y	–	–	CCCCCCCCCCCCCCCCCC(=O)O [stearic acid]	–
–	–	–	C[S+](C)C.O=C(O)CNCP(=O)([O-])O [trimethylsulfonium (TMS)]	Specific Gravity [2]: 1.1904
–	–	–	ammonium	Specific Gravity [2]: 1.1814
N	–	–	laureth-3 phosphate	–

Molecule	AA (anisotropic aggregate) [1]	Compatible w/37% a.e. K + glyphosate at 12 wt % loading [3]	Compatible w/31% a.e. diammonium glyphosate at 10 wt % loading [4]	further results
CCCCCCCCCCCC[N+](C)(C)C [VVV]	–	–	Yes	Compatible w/37% a.e. diammonium glyphosate at 12 wt % loading [4]: No
